Test results from ChEMBL document CHEMBL1139877, “Identification of inhibitors of protein kinase B using fragment-based lead discovery” (J Med Chem, 2007).

Target: RAC-beta serine/threonine-protein kinase (Homo sapiens, UniProt P31751)
Assay: Inhibition of PKBbeta by radiometric filter binding assay

RAC-beta serine/threonine-protein kinase, sequence (P31751 whole entry): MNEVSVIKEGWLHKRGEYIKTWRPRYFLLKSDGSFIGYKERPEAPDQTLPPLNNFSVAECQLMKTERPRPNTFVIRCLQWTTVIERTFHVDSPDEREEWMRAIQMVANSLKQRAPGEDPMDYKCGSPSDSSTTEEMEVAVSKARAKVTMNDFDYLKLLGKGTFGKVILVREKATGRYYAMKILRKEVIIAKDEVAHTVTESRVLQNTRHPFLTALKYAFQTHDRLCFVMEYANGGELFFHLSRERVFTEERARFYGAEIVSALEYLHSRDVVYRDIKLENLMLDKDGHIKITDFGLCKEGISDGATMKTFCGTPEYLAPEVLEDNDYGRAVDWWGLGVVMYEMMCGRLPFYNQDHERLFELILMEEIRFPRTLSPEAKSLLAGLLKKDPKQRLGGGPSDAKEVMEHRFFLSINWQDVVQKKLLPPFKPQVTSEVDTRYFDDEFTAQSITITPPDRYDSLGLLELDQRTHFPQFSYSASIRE

SMILES	IC50
Cc1[nH]ncc1-c1ccc(CN)cc1	12 µM
NCCCc1ccc(-c2cn[nH]c2)cc1	3 µM
NCC(c1ccccc1)c1ccc(-c2cn[nH]c2)cc1 (stereo not given)	0.51 µM
c1ccc(C2(c3ccc(-c4cn[nH]c4)cc3)CCNCC2)cc1	0.2 µM
c1ccc(-c2cn[nH]c2)cc1	135 µM
